Values quoted from earlier work in PMC6311893, “Computational prediction of plasma protein binding of cyclic peptides from small molecule experimental data using sparse modeling techniques” (BMC Bioinformatics, 2018).
Like-named read-outs stand apart in the source and are kept apart here.

Test system: plasma protein
Details: cited from earlier work
[1] = fraction bound to plasma protein, small molecule dataset, sheet 1-SM, ref Ingle et al.
[2] = fraction bound to plasma protein, small molecule dataset, sheet 1-SM (Set Dte = test, Dtr = training), ref Ingle et al.

Structure (SMILES)	PPB (fb) [1]	other results
COc1ccc2c(c1)N(C[C@H](C)CN(C)C)c1ccccc1S2 [methotrimeprazine]	0.98	
COc1c2occc2cc2ccc(=O)oc12 [methoxsalen]	0.83	
CO[C@]1(CC[C@@H](C)CO[C@@H]2O[C@H](CO)[C@@H](O)[C@H](O)[C@H]2O)O[C@H]2C[C@H]3[C@@H]4CC=C5C[C@@H](O[C@@H]6O[C@H](CO)[C@@H](O[C@@H]7O[C@@H](C)[C@H](O)[C@@H](O)[C@H]7O)[C@H](O)[C@H]6O[C@@H]6O[C@@H](C)[C@H](O)[C@@H](O)[C@H]6O)CC[C@]5(C)[C@H]4CC[C@]3(C)[C@H]2[C@@H]1C [methyl protodioscin]	0.84	
CNC(C)Cc1ccc2c(c1)OCO2 (stereo not shown) [methylenedioxymethamphetamine]		PPB (fb) (plasma): 0.65
CC[C@@H](CO)NC(=O)[C@@H]1C=C2c3cccc4[nH]cc(c34)C[C@H]2N(C)C1 [methylergonovine]		PPB (fb) (plasma): 0.35
CCC1(c2ccccc2)C(=O)NC(=O)N(C)C1=O (stereo not shown) [methylphenobarbital]		PPB (fb) (plasma): 0.5
CCC1(CC)C(=O)NCC(C)C1=O (stereo not shown) [methyprylon]		PPB (fb) (plasma): 0.6
CC[C@@H](CO)NC(=O)[C@@H]1C=C2c3cccc4c3c(cn4C)C[C@H]2N(C)C1 [methysergide]		PPB (fb) (plasma): 0.66
CO[C@H]1[C@@H](O)C[C@H](O[C@H]2[C@@H](O)C[C@H](O[C@H]3[C@@H](O)C[C@H](O[C@H]4CC[C@@]5(C)[C@H](CC[C@@H]6[C@@H]5C[C@@H](O)[C@]5(C)[C@@H](C7=CC(=O)OC7)CC[C@]65O)C4)O[C@@H]3C)O[C@@H]2C)O[C@@H]1C [metildigoxin]		PPB (fb) (plasma): 0.15
CN1CCN2c3ccccc3Cc3ccccc3C2C1 (stereo not shown) [mianserin]	0.93	
Clc1ccc(COC(Cn2ccnc2)c2ccc(Cl)cc2Cl)c(Cl)c1 (stereo not shown) [miconazole]		PPB (fb) [2]: 0.95
CC#C[C@]1(O)CC[C@H]2[C@@H]3CCC4=CC(=O)CCC4=C3[C@@H](c3ccc(N(C)C)cc3)C[C@@]21C [mifepristone]	0.98	
CCN(CC)C(=O)C1(c2ccccc2)CC1CN (stereo not shown) [milnacipran]		PPB (fb) [2]: 0.13
Nc1cc(N2CCCCC2)nc(N)[n+]1[O-] [minoxidil]	0.03	
CN(c1nccc(=O)[nH]1)C1CCN(c2nc3ccccc3n2Cc2ccc(F)cc2)CC1 [mizolastine]	0.98	
NC(=O)C[S+]([O-])C(c1ccccc1)c1ccccc1 (stereo not shown) [modafinil]		PPB (fb) (plasma): 0.6
COc1cc2c(cc1OC)CN(C(=O)[C@H](C)N[C@@H](CCc1ccccc1)C(=O)O)[C@H](C(=O)O)C2 [moexiprilat]	0.5	
CCOC(=O)Nc1ccc2c(c1)N(C(=O)CCN1CCOCC1)c1ccccc1S2 [moracizine]	0.88	
C/C(=C\C(=O)OCCCCCCCCC(=O)O)C[C@@H]1OC[C@H](C[C@@H]2O[C@H]2[C@@H](C)[C@H](C)O)[C@@H](O)[C@H]1O [mupirocin]	0.96	
COc1c(C)c2c(c(O)c1C/C=C(\C)CCC(=O)O)C(=O)OC2 [mycophenolic acid]	0.96	
CC(=O)NC(CS)C(=O)O (stereo not shown) [n-acetylcysteine]	0.83	

Structure (SMILES)	PPB (fb) [1]	other results
COc1ccc2cc(CCC(C)=O)ccc2c1 [nabumetone]	0.99	
CCN(CC)CCOC(=O)C(Cc1cccc2ccccc12)CC1CCCO1 (stereo not shown) [nafronyl]	0.9	
CCn1cc(C(=O)O)c(=O)c2ccc(C)nc21 [nalidixic acid]	0.94	
OC(CNCC(O)C1CCc2cc(F)ccc2O1)C1CCc2cc(F)ccc2O1 (stereo not shown) [nebivolol]		PPB (fb) [2]: 0.98
CCCc1c2oc(C(=O)O)cc(=O)c2cc2c(=O)cc(C(=O)O)n(CC)c12 [nedocromil]	0.8	
CN1CCOC(c2ccccc2)c2ccccc2C1 (stereo not shown) [nefopam]	0.73	
Cc1c(O)cccc1C(=O)N[C@@H](CSc1ccccc1)[C@H](O)CN1C[C@H]2CCCC[C@H]2C[C@H]1C(=O)NC(C)(C)C [nelfinavir]	0.99	
NCC1OC(OC2C(CO)OC(OC3C(O)C(N)CC(N)C3OC3OC(CN)C(O)C(O)C3N)C2O)C(N)C(O)C1O (stereo not shown) [neomycin]	0.2	
O=C(O)c1cccnc1 [niacin]	0.22	
CO[C@]12C[C@@H](COC(=O)c3cncc(Br)c3)CN(C)[C@@H]1Cc1cn(C)c3cccc2c13 [nicergoline]	0.95	
O=C(NCCO[N+](=O)[O-])c1cccnc1 [nicorandil]	0.25	
O=C1NCCN1c1ncc([N+](=O)[O-])s1 [niridazole]		PPB (fb) [2]: 0.85
O=[N+]([O-])OCC(CO[N+](=O)[O-])O[N+](=O)[O-] [nitroglycerin]		PPB (fb) (plasma): 0.6
NC[C@H](O)c1ccc(O)c(O)c1 [norepinephrine]	0.5	
C#C[C@]1(O)CC[C@H]2[C@@H]3CCC4=CC(=O)CC[C@@H]4[C@H]3CC[C@@]21C [norethisterone]	0.8	
CCn1cc(C(=O)O)c(=O)c2cc(F)c(N3CCNCC3)cc21 [norfloxacin]	0.15	
C#CC1(O)CC[C@H]2[C@@H]3CCC4=CC(=O)CC[C@@H]4[C@H]3CC[C@@]21CC (stereo partly shown) [norgestrel]		PPB (fb) [2]: 0.97
O=C(O)c1cc(/N=N/c2ccc(O)c(C(=O)O)c2)ccc1O [olsalazine]	0.99	
OCCN1CCN(CCCN2c3ccccc3C=Cc3ccccc32)CC1 [opipramol]	0.9	
CCCCCCCCCCC[C@@H](C[C@@H]1OC(=O)[C@H]1CCCCCC)OC(=O)[C@H](CC(C)C)NC=O [orlistat]	0.99	
Cc1ncc([N+](=O)[O-])n1CC(O)CCl (stereo not shown) [ornidazole]	0.15	

Structure (SMILES)	PPB (fb) [1]	other results
Cc1ccccc1C(OCCN(C)C)c1ccccc1 (stereo not shown) [orphenadrine]	0.95	
C[C@@H]1O[C@@H](O[C@H]2C[C@@H](O)[C@]3(CO)[C@H]4[C@H](O)C[C@]5(C)[C@@H](C6=CC(=O)OC6)CC[C@]5(O)[C@@H]4CC[C@]3(O)C2)[C@H](O)[C@H](O)[C@H]1O [ouabain]		PPB (fb) (plasma): 0
O=C(O)C(=O)O [oxalic acid]	0	
C[C@]12COC(=O)C[C@@H]1CC[C@@H]1[C@@H]2CC[C@@]2(C)[C@H]1CC[C@]2(C)O [oxandrolone]		PPB (fb) (plasma): 0.95
O=c1[nH]c2ccccc2n1CCCN1CCN(C(c2ccccc2)c2ccccc2)CC1 [oxatomide]	0.91	
NC(=O)N1c2ccccc2CC(=O)c2ccccc21 [oxcarbazepine]	0.45	
C=CCOc1ccccc1OCC(O)CNC(C)C (stereo not shown) [oxprenolol]		PPB (fb) [2]: 0.77
CCCCC1C(=O)N(c2ccccc2)N(c2ccc(O)cc2)C1=O (stereo not shown) [oxyphenbutazone]	0.99	
O=C(O)/C=C/c1ccc(O)cc1 [p-coumaric acid]	0.65	
O=C(O)c1ccc(O)cc1 [p-hydroxybenzoic acid]	0.35	
NCCC(O)(P(=O)(O)O)P(=O)(O)O [pamidronic acid]		PPB (fb) [2]: 0.14
CCC1(C)OC(=O)N(C)C1=O (stereo not shown) [paramethadione]	0	
CC(C)(C)NC[C@H](O)COc1ccccc1C1CCCC1 [penbutolol]	0.95	
CC(C)(S)[C@@H](N)C(=O)O [penicillamine]	0.8	
CC1(C)SC2C(NC=O)C(=O)N2C1C(=O)O (stereo not shown) [penicillin1]		PPB (fb) [2]: 0.18
CCCCCCCC(=O)NC1C(=O)N2C1SC(C)(C)C2C(=O)O (stereo not shown) [penicillin3]		PPB (fb) (plasma): 0.92
CCCC(CC)C(CCC)C(=O)NC1C(=O)N2C1SC(C)(C)C2C(=O)O (stereo not shown) [penicillin4]	0.93	
COCC(=O)NC1C(=O)N2C1SC(C)(C)C2C(=O)O (stereo not shown) [penicillin5]	0.07	
CCOCC(=O)NC1C(=O)N2C1SC(C)(C)C2C(=O)O (stereo not shown) [penicillin6]	0.28	
CCCCOCC(=O)NC1C(=O)N2C1SC(C)(C)C2C(=O)O (stereo not shown) [penicillin7]	0.59	
CCC(CC)OCC(=O)NC1C(=O)N2C1SC(C)(C)C2C(=O)O (stereo not shown) [penicillin8]	0.47	

Structure (SMILES)	PPB (fb) [1]	other results
CCC(OC)C(=O)NC1C(=O)N2C1SC(C)(C)C2C(=O)O (stereo not shown) [penicillin9]	0.2	
CCCCC(OCC)C(=O)NC1C(=O)N2C1SC(C)(C)C2C(=O)O (stereo not shown) [penicillin10]	0.74	
CCOCCC(=O)NC1C(=O)N2C1SC(C)(C)C2C(=O)O (stereo not shown) [penicillin11]	0.25	
CCCC(N)C(=O)NC1C(=O)N2C1SC(C)(C)C2C(=O)O (stereo not shown) [penicillin12]	0.33	
CCCCCCC(N)C(=O)NC1C(=O)N2C1SC(C)(C)C2C(=O)O (stereo not shown) [penicillin13]		PPB (fb) [2]: 0.66
CC1(C)SC2C(NC(=O)c3ccccc3)C(=O)N2C1C(=O)O (stereo not shown) [penicillin14]	0.87	
CC1(C)SC2C(NC(=O)c3ccccc3-c3ccccc3)C(=O)N2C1C(=O)O (stereo not shown) [penicillin16]	0.91	
COc1cccc(OC)c1CC(=O)NC1C(=O)N2C1SC(C)(C)C2C(=O)O (stereo not shown) [penicillin18]		PPB (fb) [2]: 0.77
CC(C(=O)NC1C(=O)N2C1SC(C)(C)C2C(=O)O)c1ccccc1 (stereo not shown) [penicillin19]	0.68	
CCC(CC)(CC)C(=O)NC1C(=O)N2C1SC(C)(C)C2C(=O)O (stereo not shown) [penicillin20]	0.94	
CC1(C)SC2C(NC(=O)C(Br)c3ccccc3)C(=O)N2C1C(=O)O (stereo not shown) [penicillin21]		PPB (fb) [2]: 0.82
CC1(C)SC2C(NC(=O)C(Cl)c3ccccc3)C(=O)N2C1C(=O)O (stereo not shown) [penicillin22]	0.78	
CC1(C)SC2C(NC(=O)C(Cl)c3cccc(Cl)c3)C(=O)N2C1C(=O)O (stereo not shown) [penicillin23]		PPB (fb) [2]: 0.94
CC1(C)SC2C(NC(=O)C(Cl)c3ccc(Cl)cc3)C(=O)N2C1C(=O)O (stereo not shown) [penicillin24]	0.94	
CC1(C)SC2C(NC(=O)C(Cl)c3ccc(Cl)c(Cl)c3)C(=O)N2C1C(=O)O (stereo not shown) [penicillin25]		PPB (fb) [2]: 0.97
Cc1ccc(C(N)C(=O)NC2C(=O)N3C2SC(C)(C)C3C(=O)O)cc1 (stereo not shown) [penicillin27]		PPB (fb): 0.6
CC1(C)SC2C(NC(=O)C(N)c3ccc(Cl)cc3)C(=O)N2C1C(=O)O (stereo not shown) [penicillin28]	0.55	
CC1(C)SC2C(NC(=O)C(N)c3ccc(Cl)c(Cl)c3)C(=O)N2C1C(=O)O (stereo not shown) [penicillin29]		PPB (fb) [2]: 0.82
CC1(C)SC2C(NC(=O)C(F)c3cccc(N)c3)C(=O)N2C1C(=O)O (stereo not shown) [penicillin30]		PPB (fb) [2]: 0.26
